We go through three molecules from US6391545B1 (priority 1992, dated 2002).

Converted amounts (≈) assume the structure as drawn.

Type in all cases: cell-based
The subject of assay [1] is E. coli strain MCH164pMAL-marA. As to the kind of experiment: MIC complementation test, MCH164pMAL-marA. The settings on record: Escherichia coli, MCH164PMALMARA
Assay [2] concerns E. coli strain MCH164pMAL-marB. As to the kind of experiment: MIC complementation test, MCH164pMAL-marB. The settings on record: Escherichia coli, MCH164PMALMARB
Assay [3] deals with E. coli strain MCH164pMAL-marAB. Put plainly: MIC complementation test, MCH164pMAL-marAB. The settings on record: Escherichia coli, MCH164PMALMARAB
Assay [4] has as its system E. coli strain MCH164pMAK-Region II. Put plainly: MIC complementation test, MCH164pMAK-Region II. The settings on record: Escherichia coli.
The test system of assay [5] is E. coli strain MCH164PHH193-SEQ ID NO:1. As to the kind of experiment: MIC complementation test, MCH164PHH193-SEQ ID NO:1. The settings on record: Escherichia coli.
The subject of assay [6] is E. coli strain AG102 (Mar mutant). Put plainly: MIC complementation test, AG102 (Mar mutant). The settings on record: Escherichia coli.

As a reminder, the MIC is the smallest concentration in the dilution series that meets the test's criterion for growth inhibition. Read a low MIC as inhibition by little substance. On to `CN(C)[C@@H]1C(O)=C(C(N)=O)C(=O)[C@@]2(O)C(O)=C3C(=O)c4c(O)cccc4[C@@](C)(O)[C@H]3C[C@@H]12` [Tet, tetracycline], for which the MIC in assay [1] was 3.4 µg/mL (≈ 7.65 µM); in assay [2], 2.1 µg/mL (≈ 4.73 µM); in assay [3], 4.7 µg/mL (≈ 10.6 µM); in assay [4], 4.7 µg/mL (≈ 10.6 µM); in assay [5], 13.1 µg/mL (≈ 29.5 µM); in assay [6], 13.8 µg/mL (≈ 31.1 µM).

`O=C(N[C@H](CO)[C@H](O)c1ccc([N+](=O)[O-])cc1)C(Cl)Cl` [clm, chloramphenicol]: the MIC is 4.9 µg/mL (≈ 15.2 µM) in assay [1], 1 µg/mL (≈ 3.09 µM) in assay [2], 7.2 µg/mL (≈ 22.3 µM) in assay [3] and over 25 µg/mL in assay [6].

Consider `CCn1cc(C(=O)O)c(=O)c2ccc(C)nc21` [nal, nalidixic acid], for which the MIC came to 5.3 µg/mL (≈ 22.8 µM) in assay [1]; 2.1 µg/mL (≈ 9.04 µM) in assay [2]; 6.3 µg/mL (≈ 27.1 µM) in assay [3]; 6.8 µg/mL (≈ 29.3 µM) in assay [4]; 13.6 µg/mL (≈ 58.6 µM) in assay [5]; 14.5 µg/mL (≈ 62.4 µM) in assay [6].
